The first assay deals with T1, Human BCL-XL protein (N-terminal HiBiT tagged BCL-XL in HT1080 cells) (Homo sapiens, UniProt Q07817).
T1 construct: expressed in transfected cells; host or cells: HT-1080 (ATCC CCL-121), stably transduced with lentivirus pLV-UBC-N-HiBiT-BCL-XL-PGK-puro and selected with puromycin
T1 sequence (Q07817 whole entry): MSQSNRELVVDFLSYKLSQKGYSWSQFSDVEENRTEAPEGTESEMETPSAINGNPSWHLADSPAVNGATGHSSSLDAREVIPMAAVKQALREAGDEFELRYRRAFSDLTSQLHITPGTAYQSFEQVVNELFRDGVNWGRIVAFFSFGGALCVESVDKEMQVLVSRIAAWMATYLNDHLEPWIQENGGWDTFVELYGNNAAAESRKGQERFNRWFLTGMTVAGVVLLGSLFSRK
The assay can be described thus: HiBiT based degradation assay. Type of assay: cell-based. The note with it: HT1080 cells expressing N-terminal HiBiT tagged BCL-XL, 6 h, normalized with DMSO control. From the text: HiBiT Based Degradation Assay
Human BCL-XL protein coding open reading frame fused with N-terminal HiBiT coding sequence was synthesized from Integrated DNA Technologies (IDT). Next, N-HiBiT-BCL-XL sequence was cloned into pLV-UBC-PGK-Puro, a lentivirus plasmid purchased from Vectorbuilder, to generate pLV-UBC-N-HiBiT-BCL-XL-PGK-puro. Lentiviral particles were generated from Lenti-X™ 293T cells (Clontech) by co-transfection of pLV-UBC-N-HiBiT-BCL-XL-PGK-puro plasmids and lentiviral packaging plasmid mix (Cellecta). HT-1080 [HT1080](ATCC CCL-121) cells were infected with the lentivirus, and HT1080 cells stably integrated with the lentiviral vectors were established by incubation with 1 μg/mL puromycin (Thermofisher).
HT1080 cells expressing N-terminal HiBiT tagged BCL-XL were dispensed into a 384-well plate pre-spotted with compounds at varying concentrations. Three thousand cells were seeded into each well in 40 μL of RPMI 1640 media. […] After incubation, luminescence was read on a PHERAstar FSX Plate Reader (BMG). BCL-XL degradation at each indicated concentration was normalized with the DMSO control. The BCL-XL degradation curves were plotted using a four-parameter logistic model. For compounds displaying hook effects, the curve fitting was performed using the bottom point of the hook curves (i.e., the point of Ymin) as the bottom plateau to calculate EC50.
For orientation: With HiBiT, luminescence reflects the tagged protein that the partner subunit can reach.
As to `Cc1ncsc1-c1ccc([C@H](C)NC(=O)[C@@H]2C[C@@H](O)CN2C(=O)[C@@H](NC(=O)CCCCCn2nc(C)c(-c3ccc(N4CCc5cccc(C(=O)Nc6nc7ccccc7s6)c5C4)nc3C(=O)O)c2C)C(C)(C)C)cc1` [Compound 101a, 6-[8-(1,3-benzothiazol-2-ylcarbamoyl)-3,4-dihydro-1H-isoquinolin-2-yl]-3-[1-[6-[[(1S)-1-[(2S,4R)-4-hydroxy-2-[[(1S)-1-[4-(4-methylthiazol-5-yl)phenyl]ethyl]carbamoyl]pyrrolidine-1-carbonyl]-2,2-dimethyl-propyl]amino]-6-oxo-hexyl]-3,5-dimethyl-pyrazol-4-yl]pyridine-2-carboxylic acid], the “Ymin (6 h)” value is recorded as “A (Ymin < 50%)”.

The assay is the same for the next values; noted with them: HT1080 cells expressing N-terminal HiBiT tagged BCL-XL, 24 h, normalized with DMSO control.
On to `Cc1ncsc1-c1ccc([C@H](C)NC(=O)[C@@H]2C[C@@H](O)CN2C(=O)[C@@H](NC(=O)C[C@@H](Cc2ccc(Oc3cccc(-c4ccc(N5CCc6cccc(C(=O)Nc7nc8ccccc8s7)c6C5)nc4C(=O)O)c3C)cc2)C(F)(F)F)C(C)(C)C)cc1` (relative stereo) [Compound 131b, 6-(8-(benzo[d]thiazol-2-ylcarbamoyl)-3,4-dihydroisoquinolin-2 (1H)-yl)-3-(3-(4-((R)-4-(((S)-1-((2S,4R)-4-hydroxy-2-(((S)-1-(4-(4-methylthiazol-5-yl)phenyl)ethyl)carbamoyl)pyrrolidin-1-yl)-3,3-dimethyl-1-oxobutan-2-yl)amino)-4-oxo-2-(trifluoromethyl)butyl)phenoxy)-2-methylphenyl)picolinic acid], for which the “Ymin (24 h)” value was “B (50% ≤ Ymin < 70%)”.

As to `Cc1ncsc1-c1ccc([C@H](C)NC(=O)[C@@H]2C[C@@H](O)CN2C(=O)[C@@H](NC(=O)C[C@@H](C)Cc2ccc(Oc3cccc(-c4ccc(N5CCc6cccc(C(=O)Nc7nc8ccccc8s7)c6C5)nc4C(=O)O)c3C)cc2)C(C)(C)C)cc1` (relative stereo) [Compound 134a, 6-[8-(1,3-benzothiazol-2-ylcarbamoyl)-3,4-dihydro-1H-isoquinolin-2-yl]-3-[3-[4-[(2S)-4-[[(1S)-1-[(2S,4R)-4-hydroxy-2-[[(1S)-1-[4-(4-methylthiazol-5-yl)phenyl]ethyl]carbamoyl]pyrrolidine-1-carbonyl]-2,2-dimethyl-propyl]amino]-2-methyl-4-oxo-butyl]phenoxy]-2-methyl-phenyl]pyridine-2-carboxylic acid], the “Ymin (24 h)” value is “A (Ymin < 50%)”.

Consider `Cc1ncsc1-c1ccc([C@H](C)NC(=O)[C@@H]2C[C@@H](O)CN2C(=O)[C@@H](NC(=O)CC[C@@H](c2ccc(Oc3cccc(-c4ccc(N5CCc6cccc(C(=O)Nc7nc8ccccc8s7)c6C5)nc4C(=O)O)c3C)cc2)C(F)(F)F)C(C)(C)C)cc1` (relative stereo) [Compound 135a, 6-(8-(benzo[d]thiazol-2-ylcarbamoyl)-3,4-dihydroisoquinolin-2 (1H)-yl)-3-(2-methyl-3-(4-((S)-1,1,1-trifluoro-5-(((S)-1-((2S,4R)-4-hydroxy-2-(((S)-1-(4-(4-methylthiazol-5-yl)phenyl)ethyl)carbamoyl)pyrrolidin-1-yl)-3,3-dimethyl-1-oxobutan-2-yl)amino)-5-oxopentan-2-yl)phenoxy)phenyl)picolinic acid], for which the “Ymin (24 h)” value is recorded as “A (Ymin < 50%)”.

Consider `Cc1ncsc1-c1ccc([C@H](C)NC(=O)[C@@H]2C[C@@H](O)CN2C(=O)[C@@H](NC(=O)CC[C@H](c2ccc(Oc3cccc(-c4ccc(N5CCc6cccc(C(=O)Nc7nc8ccccc8s7)c6C5)nc4C(=O)O)c3C)cc2)C(F)(F)F)C(C)(C)C)cc1` (relative stereo) [Compound 135b, 6-(8-(benzo[d]thiazol-2-ylcarbamoyl)-3,4-dihydroisoquinolin-2 (1H)-yl)-3-(2-methyl-3-(4-((R)-1,1,1-trifluoro-5-(((S)-1-((2S,4R)-4-hydroxy-2-(((S)-1-(4-(4-methylthiazol-5-yl)phenyl)ethyl)carbamoyl)pyrrolidin-1-yl)-3,3-dimethyl-1-oxobutan-2-yl)amino)-5-oxopentan-2-yl)phenoxy)phenyl)picolinic acid], for which the “Ymin (24 h)” value is recorded as “A (Ymin < 50%)”.

On to `Cc1ncsc1-c1ccc([C@H](C)NC(=O)[C@@H]2C[C@@H](O)CN2C(=O)[C@@H](NC(=O)CC[C@H](C)c2ccc(Oc3cccc(-c4ccc(N5CCc6cccc(C(=O)Nc7nc8ccccc8s7)c6C5)nc4C(=O)O)c3C)cc2)C(C)(C)C)cc1` (single isomer, unassigned) [Compound 129a], for which the “Ymin (24 h)” value is “A (Ymin < 50%)”.

As for `Cc1ncsc1-c1ccc([C@H](C)NC(=O)[C@@H]2C[C@@H](O)CN2C(=O)[C@@H](NC(=O)CC[C@@H](C)c2ccc(Oc3cccc(-c4ccc(N5CCc6cccc(C(=O)Nc7nc8ccccc8s7)c6C5)nc4C(=O)O)c3C)cc2)C(C)(C)C)cc1` (single isomer, unassigned) [Compound 129b], the “Ymin (24 h)” value is recorded as “A (Ymin < 50%)”.

Regarding `Cc1ncsc1-c1ccc([C@H](C)NC(=O)[C@@H]2C[C@@H](O)CN2C(=O)[C@@H](NC(=O)C[C@H](Cc2ccc(Oc3cccc(-c4ccc(N5CCc6cccc(C(=O)Nc7nc8ccccc8s7)c6C5)nc4C(=O)O)c3C)cc2)C(F)(F)F)C(C)(C)C)cc1` (single isomer, unassigned) [Compound 131a], the “Ymin (24 h)” value is “A (Ymin < 50%)”.

Consider `Cc1ncsc1-c1ccc([C@H](C)NC(=O)[C@@H]2C[C@@H](O)CN2C(=O)[C@@H](NC(=O)CC(C)Cc2ccc(Oc3cccc(-c4ccc(N5CCc6cccc(C(=O)Nc7nc8ccccc8s7)c6C5)nc4C(=O)O)c3C)cc2)C(C)(C)C)cc1` (single isomer, unassigned) [Compound 134b, 6-(8-(benzo[d]thiazol-2-ylcarbamoyl)-3,4-dihydroisoquinolin-2(1H)-yl)-3-(3-(4-((R*)-4-(((S)-1-((2S,4R)-4-hydroxy-2-(((S)-1-(4-(4-methylthiazol-5-yl)phenyl)ethyl)carbamoyl)pyrrolidin-1-yl)-3,3-dimethyl-1-oxobutan-2-yl)amino)-2-methyl-4-oxobutyl)phenoxy)-2-methylphenyl)picolinic acid], for which the “Ymin (24 h)” value is “A (Ymin < 50%)”.

On to `Cc1ncsc1-c1ccc([C@H](C)NC(=O)[C@@H]2C[C@@H](O)CN2C(=O)[C@@H](NC(=O)C(C)(C)[C@H]2CC[C@@H](Oc3cccc(-c4ccc(N5CCc6cccc(C(=O)Nc7nc8ccccc8s7)c6C5)nc4C(=O)O)c3C)CC2)C(C)(C)C)cc1` (single isomer, unassigned) [Compound 138a], for which the “Ymin (24 h)” value is listed as “A (Ymin < 50%)”.

In the case of `Cc1ncsc1-c1ccc([C@H](C)NC(=O)[C@@H]2C[C@@H](O)CN2C(=O)[C@@H](NC(=O)C(C)(C)[C@H]2CC[C@H](Oc3cccc(-c4ccc(N5CCc6cccc(C(=O)Nc7nc8ccccc8s7)c6C5)nc4C(=O)O)c3C)CC2)C(C)(C)C)cc1` (single isomer, unassigned) [Compound 138b], the “Ymin (24 h)” value was “C (Ymin ≥ 70%)”.

Regarding `Cc1ncsc1-c1ccc([C@H](C)NC(=O)[C@@H]2C[C@@H](O)CN2C(=O)[C@@H](NC(=O)[C@H](C)CCc2ccc(Oc3cccc(-c4ccc(N5CCc6cccc(C(=O)Nc7nc8ccccc8s7)c6C5)nc4C(=O)O)c3C)cc2)C(C)(C)C)cc1` (single isomer, unassigned) [Compound 143a], the “Ymin (24 h)” value is “A (Ymin < 50%)”.

For the compound `Cc1ncsc1-c1ccc([C@H](C)NC(=O)[C@@H]2C[C@@H](O)CN2C(=O)[C@@H](NC(=O)[C@@H](C)CCc2ccc(Oc3cccc(-c4ccc(N5CCc6cccc(C(=O)Nc7nc8ccccc8s7)c6C5)nc4C(=O)O)c3C)cc2)C(C)(C)C)cc1` (single isomer, unassigned) [Compound 143b], the “Ymin (24 h)” value is on record as “A (Ymin < 50%)”.

The values above are taken from US20250288683A1, “TETRAHYDROISOQUINOLINE HETEROBIFUNCTIONAL BCL-XL DEGRADERS” (Treeline Biosciences, Inc., priority 2022, published 2025).
